Literature values in patent US20210369601A1, “Pharmaceutical Formulation” (Klaria Pharma Holding AB, priority 2018, published 2021).

Settings: aqueous solution

## CNCC(O)c1ccc(O)c(O)c1 (centres unmarked) [adrenaline]
  pH of acceptable stability: < 5.5
  pH of optimal stability: 3-4
